Test results taken from patent US20070128217A1 (priority 2003, published 2007).

Tests used:
[1] = test system: control sera (pooled serum of ten healthy LUMC hospital workers; commercial negative donor pooled serum from the Dutch bloodbank); format: binding, human; set-up: Binding of Control serum LUMC to linear peptides / Binding of Control serum Blood-bank to linear peptides / Binding of Control serum LUMC to looped peptides / Binding of Control Serum Blood-Bank to Looped peptides / Binding of Control serum LUMC to linear peptides of the protein M of SARS-CoV Urbani / Binding of Control serum Blood-bank to linear peptides of the protein M of SARS-CoV Urbani / Binding of Control serum LUMC to looped peptides of the protein M of SARS-CoV Urbani / Binding of Control Serum Blood-Bank to Looped peptides of the protein M of SARS-CoV Urbani: unit not given here
[2] = test system: rabbit serum obtained by immunizing a rabbit with the SARS-CoV strain Frankfurt 1; format: binding; set-up: Binding of a rabbit serum to linear peptides / Binding of a rabbit serum to looped peptides / Rabbit serum linear peptides / Rabbit serum looped peptides / Binding of a rabbit serum to linear peptides of protein N of SARS-CoV Urbani (Rabbit serum linear peptides) / Binding of a rabbit serum to looped/cyclic peptides of protein N of SARS-CoV Urbani (Rabbit serum looped peptides): unit not given here

SGVANPAMDPIYDEP
Binding of Control Serum Blood-Bank to Looped peptides [1]: 0.5 | Binding of Control serum Blood-bank to linear peptides [1]: 0.4 | Binding of Control serum LUMC to linear peptides [1]: 0.3 | Binding of Control serum LUMC to looped peptides [1]: 0.5 | Binding of a rabbit serum to linear peptides [2]: 1.1 | Binding of a rabbit serum to looped peptides [2]: 0.6

FKPLTKKNYSELDDE
Binding of Control Serum Blood-Bank to Looped peptides of the protein X3 of SARS-CoV Urbani [1]: 0.8 | Binding of Control serum Blood-bank to linear peptides of the protein X3 of SARS-CoV Urbani [1]: 0.8 | Binding of Control serum LUMC to linear peptides of the protein X3 of SARS-CoV Urbani [1]: 0.8 | Binding of Control serum LUMC to looped peptides of the protein X3 of SARS-CoV Urbani [1]: 0.8 | Rabbit serum linear peptides [2]: 0.5 | Rabbit serum looped peptides [2]: 0.5

FTLGSITAQPVKIDN
Binding of Control Serum Blood-Bank to Looped peptides [1]: 1.6 | Binding of Control serum Blood-bank to linear peptides [1]: 0.5 | Binding of Control serum LUMC to linear peptides [1]: 0.6 | Binding of Control serum LUMC to looped peptides [1]: 1.2 | Binding of a rabbit serum to linear peptides [2]: 0.7 | Binding of a rabbit serum to looped peptides [2]: 0.8

KIDNASPASTVHATA
Binding of Control Serum Blood-Bank to Looped peptides [1]: 0.6 | Binding of Control serum Blood-bank to linear peptides [1]: 0.6 | Binding of Control serum LUMC to linear peptides [1]: 0.7 | Binding of Control serum LUMC to looped peptides [1]: 0.7 | Binding of a rabbit serum to linear peptides [2]: 0.2 | Binding of a rabbit serum to looped peptides [2]: 0.3

SKKTTKLVVILRIGT
Binding of Control Serum Blood-Bank to Looped peptides [1]: 0.7 | Binding of Control serum Blood-bank to linear peptides [1]: 0.6 | Binding of Control serum LUMC to linear peptides [1]: 0.8 | Binding of Control serum LUMC to looped peptides [1]: 0.7 | Recognition of the peptide by the rabbit serum [2]: recognized

HNYDYCIPYNSVTDT
Binding of Control Serum Blood-Bank to Looped peptides [1]: 0.7 | Binding of Control serum Blood-bank to linear peptides [1]: 0.3 | Binding of Control serum LUMC to linear peptides [1]: 0.4 | Binding of Control serum LUMC to looped peptides [1]: 0.6 | Binding of a rabbit serum to linear peptides [2]: 0.1 | Binding of a rabbit serum to looped peptides [2]: 0.5

YKLNTDHAGSNDNIA
Binding of Control Serum Blood-Bank to Looped peptides of the protein M of SARS-CoV Urbani [1]: 0.6 | Binding of Control serum Blood-bank to linear peptides of the protein M of SARS-CoV Urbani [1]: 0.6 | Binding of Control serum LUMC to linear peptides of the protein M of SARS-CoV Urbani [1]: 0.7 | Binding of Control serum LUMC to looped peptides of the protein M of SARS-CoV Urbani [1]: 0.6 | Rabbit serum linear peptides [2]: 0.1 | Rabbit serum looped peptides [2]: 0.1

HTMVQTCTPNVTINC
Binding of Control Serum Blood-Bank to Looped peptides [1]: 0.8 | Binding of Control serum Blood-bank to linear peptides [1]: 0.9 | Binding of Control serum LUMC to linear peptides [1]: 0.7 | Binding of Control serum LUMC to looped peptides [1]: 0.6 | Rabbit serum linear peptides [2]: 0.4 | Rabbit serum looped peptides [2]: 0.2

LSYYKLGASQRVGTD
Binding of Control Serum Blood-Bank to Looped peptides of the protein M of SARS-CoV Urbani [1]: 0.7 | Binding of Control serum Blood-bank to linear peptides of the protein M of SARS-CoV Urbani [1]: 0.8 | Binding of Control serum LUMC to linear peptides of the protein M of SARS-CoV Urbani [1]: 0.8 | Binding of Control serum LUMC to looped peptides of the protein M of SARS-CoV Urbani [1]: 0.7 | Rabbit serum linear peptides [2]: 0.2 | Rabbit serum looped peptides [2]: 0.3

DPIYDEPTTTTSVPL
Binding of Control Serum Blood-Bank to Looped peptides [1]: 0.8 | Binding of Control serum Blood-bank to linear peptides [1]: 0.5 | Binding of Control serum LUMC to linear peptides [1]: 0.5 | Binding of Control serum LUMC to looped peptides [1]: 0.7 | Binding of a rabbit serum to linear peptides [2]: 0.1 | Binding of a rabbit serum to looped peptides [2]: 0.5

NWVTGGIAIAMACIV
Binding of Control Serum Blood-Bank to Looped peptides of the protein M of SARS-CoV Urbani [1]: 0.6 | Binding of Control serum Blood-bank to linear peptides of the protein M of SARS-CoV Urbani [1]: 0.7 | Binding of Control serum LUMC to linear peptides of the protein M of SARS-CoV Urbani [1]: 0.8 | Binding of Control serum LUMC to looped peptides of the protein M of SARS-CoV Urbani [1]: 0.9 | Rabbit serum linear peptides [2]: 0.2 | Rabbit serum looped peptides [2]: 0.3

EGHQTAAFRDVLVVL
Binding of Control Serum Blood-Bank to Looped peptides [1]: 0.9 | Binding of Control serum Blood-bank to linear peptides [1]: 0.7 | Binding of Control serum LUMC to linear peptides [1]: 0.9 | Binding of Control serum LUMC to looped peptides [1]: 1.6 | Rabbit serum linear peptides [2]: 0.3 | Rabbit serum looped peptides [2]: 0.6

YSRVKNLNSSEGVPD
Binding of Control Serum Blood-Bank to Looped peptides [1]: 0.4 | Binding of Control serum Blood-bank to linear peptides [1]: 0.6 | Binding of Control serum LUMC to linear peptides [1]: 0.8 | Binding of Control serum LUMC to looped peptides [1]: 0.8 | Binding of a rabbit serum to linear peptides [2]: 0.3 | Binding of a rabbit serum to looped peptides [2]: 0.0

GHQTAAFRDVLVVLN
Binding of Control Serum Blood-Bank to Looped peptides [1]: 0.6 | Binding of Control serum Blood-bank to linear peptides [1]: 0.5 | Binding of Control serum LUMC to linear peptides [1]: 0.8 | Binding of Control serum LUMC to looped peptides [1]: 0.6 | Rabbit serum linear peptides [2]: 0.1 | Rabbit serum looped peptides [2]: 0.5

GSITAQPVKIDNASP
Binding of Control Serum Blood-Bank to Looped peptides [1]: 0.6 | Binding of Control serum Blood-bank to linear peptides [1]: 0.6 | Binding of Control serum LUMC to linear peptides [1]: 0.6 | Binding of Control serum LUMC to looped peptides [1]: 0.5 | Binding of a rabbit serum to linear peptides [2]: 0.2 | Binding of a rabbit serum to looped peptides [2]: 0.4

PNVTINCQDPAGGAL
Binding of Control Serum Blood-Bank to Looped peptides [1]: 0.4 | Binding of Control serum Blood-bank to linear peptides [1]: 1.0 | Binding of Control serum LUMC to linear peptides [1]: 0.7 | Binding of Control serum LUMC to looped peptides [1]: 0.4 | Rabbit serum linear peptides [2]: 0.6 | Rabbit serum looped peptides [2]: 0.2

TVLLKEPCPSGTYEG
Binding of Control Serum Blood-Bank to Looped peptides [1]: 0.7 | Binding of Control serum Blood-bank to linear peptides [1]: 0.7 | Binding of Control serum LUMC to linear peptides [1]: 0.8 | Binding of Control serum LUMC to looped peptides [1]: 0.8 | Rabbit serum linear peptides [2]: 0.2 | Rabbit serum looped peptides [2]: 0.2

VRGTTVLLKEPCPSG
Binding of Control Serum Blood-Bank to Looped peptides [1]: 0.8 | Binding of Control serum Blood-bank to linear peptides [1]: 0.8 | Binding of Control serum LUMC to linear peptides [1]: 1.0 | Binding of Control serum LUMC to looped peptides [1]: 0.9 | Rabbit serum linear peptides [2]: 0.4 | Rabbit serum looped peptides [2]: 0.4

ADNGTITVEELKQLL
Binding of Control Serum Blood-Bank to Looped peptides of the protein M of SARS-CoV Urbani [1]: 0.5 | Binding of Control serum Blood-bank to linear peptides of the protein M of SARS-CoV Urbani [1]: 0.7 | Binding of Control serum LUMC to linear peptides of the protein M of SARS-CoV Urbani [1]: 0.5 | Binding of Control serum LUMC to looped peptides of the protein M of SARS-CoV Urbani [1]: 0.7 | Recognition of the peptide by the rabbit serum [2]: recognized

VKIDNASPASTVHAT
Binding of Control Serum Blood-Bank to Looped peptides [1]: 0.5 | Binding of Control serum Blood-bank to linear peptides [1]: 0.7 | Binding of Control serum LUMC to linear peptides [1]: 0.7 | Binding of Control serum LUMC to looped peptides [1]: 0.6 | Binding of a rabbit serum to linear peptides [2]: 0.2 | Binding of a rabbit serum to looped peptides [2]: 0.3

NKLVKDPPNVQIHTI
Binding of Control Serum Blood-Bank to Looped peptides [1]: 0.8 | Binding of Control serum Blood-bank to linear peptides [1]: 1.0 | Binding of Control serum LUMC to linear peptides [1]: 0.9 | Binding of Control serum LUMC to looped peptides [1]: 0.9 | Binding of a rabbit serum to linear peptides [2]: 0.1 | Binding of a rabbit serum to looped peptides [2]: 0.6

YVYSRVKNLNSSEGV
Binding of Control Serum Blood-Bank to Looped peptides [1]: 0.9 | Binding of Control serum Blood-bank to linear peptides [1]: 0.8 | Binding of Control serum LUMC to linear peptides [1]: 0.6 | Binding of Control serum LUMC to looped peptides [1]: 0.8 | Binding of a rabbit serum to linear peptides [2]: 1.2 | Binding of a rabbit serum to looped peptides [2]: 0.5

PLGRCDIKDLPKEIT
Binding of Control Serum Blood-Bank to Looped peptides of the protein M of SARS-CoV Urbani [1]: 0.9 | Binding of Control serum Blood-bank to linear peptides of the protein M of SARS-CoV Urbani [1]: 0.6 | Binding of Control serum LUMC to linear peptides of the protein M of SARS-CoV Urbani [1]: 0.4 | Binding of Control serum LUMC to looped peptides of the protein M of SARS-CoV Urbani [1]: 0.8 | Rabbit serum linear peptides [2]: 0.3 | Rabbit serum looped peptides [2]: 0.4

ISTPKLKEDYQIGGY
Binding of Control Serum Blood-Bank to Looped peptides [1]: 0.7 | Binding of Control serum Blood-bank to linear peptides [1]: 0.7 | Binding of Control serum LUMC to linear peptides [1]: 1.0 | Binding of Control serum LUMC to looped peptides [1]: 0.5 | Binding of a rabbit serum to linear peptides [2]: 0.1 | Binding of a rabbit serum to looped peptides [2]: 0.4
